From patent publication US11098035B2, “Compounds, compositions, and methods for increasing CFTR activity” (Proteostasis Therapeutics, Inc., priority 2014, dated 2021)
Where a name gives a salt, the structure may show the parent alone.

target: T1, ΔF508-CFTR (Homo sapiens, UniProt P13569, DEL508-508); experiment: hBE Equivalent Current (Ieq) Assay; type: cell-based; details: compound at 10 uM and VX-809 at 1 uM, activity as % of VX-809 (1 uM); AUC of equivalent chloride current; primary lung epithelial cells homozygous for ΔF508, 24 h treatment
T1 construct: Primary lung epithelial cells homozygous for the Cystic Fibrosis-causing ΔF508 mutation were differentiated for a minimum of 4 weeks; endogenous in cells; host or cells: primary human bronchial (lung) epithelial cells (hBE) homozygous for ΔF508, differentiated at an air-liquid interface
Experimental: Primary lung epithelial cells homozygous for the Cystic Fibrosis-causing ΔF508 mutation were differentiated for a minimum of 4 weeks in an air-liquid interface on Costar 24 well HTS filter plates prior to the equivalent current (Ieq) measurements. Cells were apically mucus-washed for 30 minutes 24 h prior to treatment with compounds. The basolateral media was removed and replaced with media containing the compound of interest diluted to its final concentration from DMSO stocks. Treated cells were incubated at 37° C. and 5% CO2 for 24 hours. At the end of the treatment period, the media was changed to the Ieq experimental solution for 30 minutes before the experiment and plates are maintained in a CO2-free incubator during this period. The plates containing the cells were then placed in pre-warmed heating blocks at 36° C.±0.5 for 15 minutes before measurements are taken. The transepithelial voltage (VT) and conductance (GT) were measured using a custom 24 channel current clamp (TECC-24) with 24 well electrode manifold. The Ieq assay measurements were made following additions with standardized time periods: • 1. The baseline VT and GT values were measured for approximately 20 minutes. • 2. Benzamil was added to block ENaC for 15 minutes. • 3. Forskolin plus VX-770 were added to maximally activate ΔF508-CFTR for 27 minutes. • 4. Bumetanide was added to inhibit the NaK2Cl cotransporter and shut-off secretion of chloride.
The activity data captured was the area under the curve (AUC) for the traces of the equivalent chloride current. The AUC was collected from the time of the forskolin/VX-770 addition until the inhibition by bumetanide addition. Correction in response to compound treatment was scored as the increase in the AUC for compound-treated samples over that of vehicle-treated samples.
The results are shown below in Table 2. ++ indicates activity ≥25% run at 10 uM of VX-809 at 1 uM, + indicates activity 10 to <25% run at 10 uM of VX-809 at 1 uM, **indicates activity ≥200% of VX-809 (1 uM) with compound at 10 uM and VX-809 at 1 uM; * indicates activity 100-200% of VX-809 (1 uM) with compound at 10 uM and VX-809 at 1 uM. ^## indicates activity ≥200% of VX-809 (3 uM) with compound at 10 uM and VX-809 at 3 uM; ^# indicates activity 100-200% of VX-809 (3 uM) with compound at 10 uM and VX-809 at 3 uM.

T1 sequence (P13569 with tags, fused parts or gaps DEL508-508): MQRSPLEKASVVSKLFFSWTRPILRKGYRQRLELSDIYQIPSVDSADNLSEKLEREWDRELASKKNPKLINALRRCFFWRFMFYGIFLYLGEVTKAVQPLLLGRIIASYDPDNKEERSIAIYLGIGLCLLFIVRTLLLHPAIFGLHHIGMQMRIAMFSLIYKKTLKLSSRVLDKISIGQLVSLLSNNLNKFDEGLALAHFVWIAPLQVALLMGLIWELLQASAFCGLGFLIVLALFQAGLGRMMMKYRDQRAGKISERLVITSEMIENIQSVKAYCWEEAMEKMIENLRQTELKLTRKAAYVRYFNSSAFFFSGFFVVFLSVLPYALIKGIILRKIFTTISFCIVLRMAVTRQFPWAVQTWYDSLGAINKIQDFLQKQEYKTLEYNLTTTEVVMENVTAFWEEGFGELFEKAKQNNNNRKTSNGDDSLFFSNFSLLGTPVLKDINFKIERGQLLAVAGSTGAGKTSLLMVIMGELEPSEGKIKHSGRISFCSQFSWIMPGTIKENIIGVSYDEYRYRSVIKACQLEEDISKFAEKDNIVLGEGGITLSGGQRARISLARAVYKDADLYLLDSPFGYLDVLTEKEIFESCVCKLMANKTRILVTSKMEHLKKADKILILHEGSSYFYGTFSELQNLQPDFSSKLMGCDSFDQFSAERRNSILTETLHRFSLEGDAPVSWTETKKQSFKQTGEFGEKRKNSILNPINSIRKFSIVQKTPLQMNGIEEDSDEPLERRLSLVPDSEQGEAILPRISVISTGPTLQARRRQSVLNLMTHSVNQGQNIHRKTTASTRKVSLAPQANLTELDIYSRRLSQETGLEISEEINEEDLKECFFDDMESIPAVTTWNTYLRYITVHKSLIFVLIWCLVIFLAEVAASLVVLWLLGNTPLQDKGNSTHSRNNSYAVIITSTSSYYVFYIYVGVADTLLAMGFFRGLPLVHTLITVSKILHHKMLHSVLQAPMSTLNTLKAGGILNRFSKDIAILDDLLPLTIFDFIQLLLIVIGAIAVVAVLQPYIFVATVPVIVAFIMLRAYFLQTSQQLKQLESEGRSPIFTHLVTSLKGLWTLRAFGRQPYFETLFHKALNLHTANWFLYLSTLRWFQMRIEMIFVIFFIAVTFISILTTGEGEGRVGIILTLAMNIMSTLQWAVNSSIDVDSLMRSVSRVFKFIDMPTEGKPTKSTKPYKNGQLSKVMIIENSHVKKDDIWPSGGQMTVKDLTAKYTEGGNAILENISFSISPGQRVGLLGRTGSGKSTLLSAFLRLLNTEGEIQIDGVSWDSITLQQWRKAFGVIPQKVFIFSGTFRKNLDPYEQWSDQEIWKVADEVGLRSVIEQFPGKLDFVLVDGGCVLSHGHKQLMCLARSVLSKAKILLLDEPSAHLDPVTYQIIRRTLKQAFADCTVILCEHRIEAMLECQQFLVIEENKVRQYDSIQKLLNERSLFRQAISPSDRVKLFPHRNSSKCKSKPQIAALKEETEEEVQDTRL

| Structure (SMILES) | Ieq |
| --- | --- |
| C[C@@H](O)c1nnc(C2CC(NC(=O)c3cc(-c4ccccc4)no3)C2)o1 (some centres unmarked) [Example 6] | * (* indicates activity 100-200% of VX-809 (1 uM) with compound at 10 uM and VX-809 at 1 uM) |
| CC(OC1CCC1)c1nnc([C@H]2C[C@H](NC(=O)c3cc(-c4ccccc4)no3)C2)o1 (relative stereo) [Example 17, N-(trans-3-(5-(1-cyclobutoxyethyl)-1,3,4-oxadiazol-2-yl)cyclobutyl)-3-phenylisoxazole-5-carboxamide] | * (* indicates activity 100-200% of VX-809 (1 uM) with compound at 10 uM and VX-809 at 1 uM) |
| C[C@@H](O)c1nnc(C[C@H]2C[C@H](NC(=O)c3cc(-c4ccc(F)cc4)no3)C2)s1 [Example 44, 3-(4-Fluorophenyl)-N-[(1r,3r)-3-([5-[(1R)-1-hydroxyethyl]-1,3,4-thiadiazol-2-yl]methyl)cyclobutyl]-1,2-oxazole-5-carboxamide] | ** (**indicates activity ≥200% of VX-809 (1 uM) with compound at 10 uM and VX-809 at 1 uM) |
| C[C@@H](O)c1nnc(C[C@H]2C[C@@H](NC(=O)c3cc(-c4ccc(F)cc4)no3)C2)s1 [Example 43, 3-(4-Fluorophenyl)-N-[(1s,3s)-3-([5-[(1R)-1-hydroxyethyl]-1,3,4-thiadiazol-2-yl]methyl)cyclobutyl]-1,2-oxazole-5-carboxamide] | ** (**indicates activity ≥200% of VX-809 (1 uM) with compound at 10 uM and VX-809 at 1 uM) |
| C[C@@H](O)c1nnc(C[C@H]2C[C@@H](NC(=O)c3cc(-c4ccccc4)no3)C2)s1 [Example 41, 3-Phenyl-N-[(1s,3s)-3-([5-[(1R)-1-hydroxyethyl]-1,3,4-thiadiazol-2-yl]methyl)cyclobutyl]-1,2-oxazole-5-carboxamide] | ** (**indicates activity ≥200% of VX-809 (1 uM) with compound at 10 uM and VX-809 at 1 uM) |
| CN1CC(c2nnc([C@H]3C[C@H](NC(=O)c4cc(-c5ccccc5)no4)C3)o2)C1 [Example 21, N-(trans-3-(5-(1-methylazetidin-3-yl)-1,3,4-oxadiazol-2-yl)cyclobutyl)-3-phenylisoxazole-5-carboxamide trifluoroacetate] | * (* indicates activity 100-200% of VX-809 (1 uM) with compound at 10 uM and VX-809 at 1 uM) |
| C[C@@H](O)c1nnc(CC2CC(NC(=O)c3cc(-c4ccccc4)no3)C2)s1 (stereo partly drawn) [Example 42, 3-Phenyl-N-[(1r,3r)-3-([5-[(1R)-1-hydroxyethyl]-1,3,4-thiadiazol-2-yl]methyl)cyclobutyl]-1,2-oxazole-5-carboxamide] | * (* indicates activity 100-200% of VX-809 (1 uM) with compound at 10 uM and VX-809 at 1 uM) |

same assay, conditions: compound run at 10 uM, activity relative to VX-809 at 1 uM; AUC of equivalent chloride current; primary lung epithelial cells homozygous for ΔF508, 24 h treatment

| Structure (SMILES) | Ieq |
| --- | --- |
| O=C(NCC1CCCO1)c1cc(-c2ccccc2)no1 (centres unmarked) [Example 2, 3-phenyl-N-((tetrahydrofuran-2-yl)methyl)isoxazole-5-carboxamide] | ++ (++ indicates activity ≥25% run at 10 uM of VX-809 at 1 uM) |
| O=C(NCCN1CCOCC1)c1cc(-c2ccccc2)co1 [Example 10, N-(2-morpholinoethyl)-4-phenylfuran-2-carboxamide] | + (+ indicates activity 10 to <25% run at 10 uM of VX-809 at 1 uM) |

target: T1, ΔF508-CFTR; experiment: Ussing Measurements; type: cell-based; details: compound at 10 uM and VX-809 at 3 uM, activity as % of VX-809 (3 uM); CFTRinh-172 inhibitable short-circuit current; hBEs homozygous for ΔF508, 24 h treatment
Experimental: As discussed above, Ussing measurements are used to measure CFTR activity. In this method, primary lung epithelial cells (hBEs) homozygous for the Cystic Fibrosis-causing ΔF508 mutation are differentiated for a minimum of 4 weeks in an air-liquid interface on SnapWell filter plates prior to the Ussing measurements. Cells are apically mucus-washed for 30 minutes prior to treatment with compounds. The basolateral media is removed and replaced with media containing the compound of interest diluted to its final concentration from DMSO stocks. Treated cells are incubated at 37° C. and 5% CO2 for 24 hours. […] The short-circuit current is measured in voltage clamp-mode (Vhold=0 mV), and the entire assay is conducted at a temperature of 36° C.-36.5° C. Once the voltages stabilized, the chambers are clamped, and data is recorded by pulse readings every 5 seconds. Following baseline current stabilization, the following additions can be applied and the changes in current and resistance of the cells can be monitored: • 1. […]
The inhibitable current (that current that is blocked by CFTRinh-172) is measured as the specific activity of the ΔF508-CFTR channel, and increases in response to compound in this activity over that observed in vehicle-treated samples are identified as the correction of ΔF508-CFTR function imparted by the compound tested. […]

| Structure (SMILES) | Ussing |
| --- | --- |
| C[C@@H](O)c1nnc(C2CC(NC(=O)c3cc(-c4ccccc4)no3)C2)o1 (some centres unmarked) [Example 6] | ## (^## indicates activity ≥200% of VX-809 (3 uM) with compound at 10 uM and VX-809 at 3 uM) |
| O=C(NC1CC(n2nncc2CO)C1)c1cc(-c2ccccc2)no1 (stereo not drawn) [Example 5, N-trans-3-(5-(hydroxymethyl)-1H-1,2,3-triazol-1-yl)cyclobutyl)-3-phenylisoxazole-5-carboxamide] | ## (^## indicates activity ≥200% of VX-809 (3 uM) with compound at 10 uM and VX-809 at 3 uM) |
